According to patent US12427187B2, “Glucose-responsive insulin conjugates” (priority 2019, dated 2025):

target: T1, Human macrophage mannose receptor 1 (MRC1) (Homo sapiens, UniProt P22897); test: MRC1 competition binding assay with Eu-mannosylated-BSA; conditions: MRC1 Binding IP, Method F: 384-well plate; IP = inflection point
T1 sequence (P22897 19-1456): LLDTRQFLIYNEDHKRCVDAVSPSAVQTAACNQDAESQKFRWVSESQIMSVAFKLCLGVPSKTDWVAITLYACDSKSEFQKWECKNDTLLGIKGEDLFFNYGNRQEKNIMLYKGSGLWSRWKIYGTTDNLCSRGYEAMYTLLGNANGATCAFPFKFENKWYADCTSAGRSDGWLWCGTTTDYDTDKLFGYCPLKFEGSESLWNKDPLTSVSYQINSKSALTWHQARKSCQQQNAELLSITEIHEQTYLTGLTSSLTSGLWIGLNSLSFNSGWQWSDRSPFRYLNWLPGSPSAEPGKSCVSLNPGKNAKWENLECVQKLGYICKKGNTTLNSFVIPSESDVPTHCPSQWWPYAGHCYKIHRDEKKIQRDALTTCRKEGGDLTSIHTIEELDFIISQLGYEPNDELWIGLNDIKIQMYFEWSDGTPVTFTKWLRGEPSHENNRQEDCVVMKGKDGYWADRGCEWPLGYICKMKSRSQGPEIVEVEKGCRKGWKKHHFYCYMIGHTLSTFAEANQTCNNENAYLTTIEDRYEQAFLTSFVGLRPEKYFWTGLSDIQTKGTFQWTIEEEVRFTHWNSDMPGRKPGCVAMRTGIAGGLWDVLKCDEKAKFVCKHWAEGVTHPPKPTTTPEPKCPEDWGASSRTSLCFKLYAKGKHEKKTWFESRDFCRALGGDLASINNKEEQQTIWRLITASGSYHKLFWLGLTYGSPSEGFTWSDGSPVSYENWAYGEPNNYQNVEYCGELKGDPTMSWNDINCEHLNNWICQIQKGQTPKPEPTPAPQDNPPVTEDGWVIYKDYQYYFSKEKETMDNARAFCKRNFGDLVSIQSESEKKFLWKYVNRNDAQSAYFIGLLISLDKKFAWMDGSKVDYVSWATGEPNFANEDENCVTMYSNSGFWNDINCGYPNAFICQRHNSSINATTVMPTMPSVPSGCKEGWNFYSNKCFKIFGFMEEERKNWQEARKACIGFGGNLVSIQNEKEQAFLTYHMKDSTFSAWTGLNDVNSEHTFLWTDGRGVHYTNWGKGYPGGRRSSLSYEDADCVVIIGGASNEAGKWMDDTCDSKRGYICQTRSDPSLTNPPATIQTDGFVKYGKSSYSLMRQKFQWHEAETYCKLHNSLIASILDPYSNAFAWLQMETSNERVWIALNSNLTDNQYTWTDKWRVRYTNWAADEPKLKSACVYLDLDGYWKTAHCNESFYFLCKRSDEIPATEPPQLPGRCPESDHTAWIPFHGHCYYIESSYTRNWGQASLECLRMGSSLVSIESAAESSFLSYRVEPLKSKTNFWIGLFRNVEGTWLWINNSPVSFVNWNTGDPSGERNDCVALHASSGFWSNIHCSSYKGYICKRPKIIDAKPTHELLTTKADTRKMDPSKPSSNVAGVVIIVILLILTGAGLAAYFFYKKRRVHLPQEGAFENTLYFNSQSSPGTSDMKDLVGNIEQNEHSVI

| Compound | IC50 |
| --- | --- |
| CC(=O)[C@H](CCCCN)NC(=O)CCCCCNC(=O)[C@H](CCCCNC(=O)CCCCCNC(=O)CN(CC(=O)NCCO[C@@H]1O[C@@H](C)[C@@H](O)[C@@H](O)[C@@H]1O)CC(=O)NCCO[C@@H]1O[C@@H](C)[C@@H](O)[C@@H](O)[C@@H]1O)NC(=O)[C@H](CCCCNC(=O)CCCCCNC(=O)CN(CC(N)=O)CC(=O)NCCO[C@@H]1CC(C)[C@@H](O)[C@@H](O)[C@@H]1O)NC(=O)CCCCCNC(=O)CN(CC(=O)NCCO[C@@H]1O[C@@H](C)[C@@H](O)[C@@H](O)[C@@H]1O)CC(=O)NCCO[C@@H]1O[C@@H](C)[C@@H](O)[C@@H](O)[C@@H]1O (some centres unmarked) [IOC-41] | 6.09 nM |

same assay, conditions: Method E: 96-well plate; IP = inflection point; read-out: MRC1 Binding IP

| IC50 | Compound |
| --- | --- |
| 54.5 nM | CC(=O)[C@H](CCCCN)NC(=O)CCCCC(=O)N[C@@H](CCC(=O)NCCCCCC(=O)N(CCOC1O[C@H](CO)[C@@H](O)[C@H](O)[C@@H]1O)CCOC1O[C@H](CO)[C@@H](O)[C@H](O)[C@@H]1O)C(=O)N[C@@H](CCC(=O)NCCCCCC(=O)N(CCOC1O[C@H](CO)[C@@H](O)[C@H](O)[C@@H]1O)CCO[C@H]1O[C@H](CO)[C@@H](O)[C@H](O)[C@@H]1O)C(=O)N[C@@H](CC(C)C)C(=O)NCCCCCC(=O)N(CCOC1O[C@H](CO)[C@@H](O)[C@H](O)[C@@H]1O)CCOC1O[C@H](CO)[C@@H](O)[C@H](O)[C@@H]1O (some centres unmarked) [IOC-49] |
| 37.2 nM | CC(=O)[C@H](CCCCN)NC(=O)CCCCC(=O)N[C@@H](CCC(=O)NCCO[C@H]1O[C@H](CO)[C@@H](O)[C@H](O)[C@@H]1O)C(=O)N[C@@H](CCC(=O)NCCO[C@H]1O[C@H](CO)[C@@H](O)[C@H](O)[C@@H]1O)C(=O)N[C@@H](CCC(=O)NCCO[C@H]1O[C@H](CO)[C@@H](O)[C@H](O)[C@@H]1O)C(=O)NCCO[C@H]1O[C@H](CO[C@H]2O[C@H](CO)[C@@H](O)[C@H](O)[C@@H]2O)[C@@H](O)[C@H](O[C@H]2O[C@H](CO)[C@@H](O)[C@H](O)[C@@H]2O)[C@@H]1O [IOC-23] |

same assay, conditions: Method F: 384-well plate; IP = inflection point; read-out: MRC1 Binding IP

| Compound | IC50 |
| --- | --- |
| CC(=O)[C@H](CCCCN)NC(=O)CCCCCNC(=O)[C@H](CCCCNC(=O)CCCCCNC(=O)CCCCCNC(=O)CN(CC(=O)NCCO[C@H]1O[C@H](CO)[C@@H](O)[C@H](O)[C@@H]1O)CC(=O)NCCO[C@H]1O[C@H](CO)[C@@H](O)[C@H](O)[C@@H]1O)NC(=O)[C@H](CCCCNC(=O)CCCCCNC(=O)CN(CC(=O)NCCO[C@H]1O[C@H](CO)[C@@H](O)[C@H](O)[C@@H]1O)CC(=O)NCCO[C@H]1O[C@H](CO)[C@@H](O)[C@H](O)[C@@H]1O)NC(=O)CCCCCNC(=O)CN(CC(=O)NCCO[C@H]1O[C@H](CO)[C@@H](O)[C@H](O)[C@@H]1O)CC(=O)NCCO[C@H]1O[C@H](CO)[C@@H](O)[C@H](O)[C@@H]1O [IOC-52] | 49.1 nM |
| CC(=O)[C@H](CCCCN)NC(=O)CCCCCNC(=O)[C@H](CCCCNC(=O)CCCCCNC(=O)CCCCCNC(=O)CN(CC(=O)NCCO[C@H]1O[C@H](CO)[C@@H](O)[C@H](O)[C@@H]1O)CC(=O)NCCO[C@@H]1O[C@@H](C)[C@@H](O)[C@@H](O)[C@@H]1O)NC(=O)[C@H](CCCCNC(=O)CCCCCNC(=O)CN(CC(=O)NCCO[C@H]1O[C@H](CO)[C@@H](O)[C@H](O)[C@@H]1O)CC(=O)NCCO[C@@H]1O[C@@H](C)[C@@H](O)[C@@H](O)[C@@H]1O)NC(=O)CCCCCNC(=O)CN(CC(=O)NCCO[C@H]1O[C@H](CO)[C@@H](O)[C@H](O)[C@@H]1O)CC(=O)NCCO[C@@H]1O[C@@H](C)[C@@H](O)[C@@H](O)[C@@H]1O [IOC-53] | 9.22 nM |
| CC(=O)[C@H](CCCCN)NC(=O)CCCCCNC(=O)[C@H](CCCCNC(=O)[C@H](CCCCNC(=O)CCCCCNC(=O)CN(CC(=O)NCCO[C@H]1O[C@H](CO)[C@@H](O)[C@H](O)[C@@H]1O)CC(=O)NCCO[C@H]1O[C@H](CO)[C@@H](O)[C@H](O)[C@@H]1O)NC(=O)CN(CC(=O)NCCO[C@H]1O[C@H](CO)[C@@H](O)[C@H](O)[C@@H]1O)CC(=O)NCCO[C@H]1O[C@H](CO)[C@@H](O)[C@H](O)[C@@H]1O)NC(=O)CN(CC(=O)NCCO[C@@H]1O[C@@H](C)[C@@H](O)[C@@H](O)[C@@H]1O)CC(=O)NCCO[C@@H]1O[C@@H](C)[C@@H](O)[C@@H](O)[C@@H]1O [IOC-46] | 58.3 nM |
| CC(=O)[C@H](CCCCN)NC(=O)CCCCC(=O)NCC(=O)N[C@@H](CCC(=O)N[C@@H](CCC(=O)NCCCCCC(=O)N(CCOC1O[C@H](CO)[C@@H](O)[C@H](O)[C@@H]1O)CCOC1O[C@H](CO)[C@@H](O)[C@H](O)[C@@H]1O)C(=O)NCCCCCC(=O)N(CCOC1O[C@H](CO)[C@@H](O)[C@H](O)[C@@H]1O)CCOC1O[C@H](CO)[C@@H](O)[C@H](O)[C@@H]1O)C(=O)NCCCCCC(=O)NCCO[C@@H]1O[C@H](CO[C@H]2O[C@H](CO)[C@@H](O)[C@H](O)[C@@H]2O)[C@@H](O)[C@H](O[C@H]2O[C@H](CO)[C@@H](O)[C@H](O)[C@@H]2O)[C@@H]1O (some centres unmarked) [IOC-28] | 10.9 nM |

Other lines, results leading:

| IC50 | Compound |
| --- | --- |
| 604 nM | CC(=O)[C@H](CCCCN)NC(=O)CCCCC(=O)NCC(=O)N[C@@H](CCC(=O)N[C@@H](CCC(=O)NCCCCCC(=O)N(CCOC1O[C@H](CO)[C@@H](O)[C@H](O)[C@@H]1O)CCO[C@H]1O[C@H](CO)[C@@H](O)[C@H](O)[C@@H]1O)C(=O)NCCCCCC(=O)N(CCOC1O[C@H](CO)[C@@H](O)[C@H](O)[C@@H]1O)CCOC1O[C@H](CO)[C@@H](O)[C@H](O)[C@@H]1O)C(=O)NCCCCCC(=O)NCCO[C@H]1O[C@H](CO[C@H]2O[C@H](CO)[C@@H](O)[C@H](O)[C@@H]2O)[C@@H](O)[C@H](O[C@H]2O[C@H](CO)[C@@H](O)[C@H](O)[C@@H]2O)[C@@H]1O (some centres unmarked) [IOC-32] |
| 24.7 nM | CC(=O)[C@H](CCCCN)NC(=O)CCCCCNC(=O)[C@H](CCCCNC(=O)CCCCCNC(=O)CN(CC(=O)NCCO[C@H]1O[C@H](CO)[C@@H](O)[C@H](O)[C@@H]1O)CC(=O)NCCO[C@H]1O[C@H](CO)[C@@H](O)[C@H](O)[C@@H]1O)NC(=O)[C@H](CCCCNC(=O)CCCCCNC(=O)CN(CC(=O)NCCO[C@H]1O[C@H](CO)[C@@H](O)[C@H](O)[C@@H]1O)CC(=O)NCCO[C@H]1O[C@H](CO)[C@@H](O)[C@H](O)[C@@H]1O)NC(=O)CCCCCNC(=O)CN(CC(=O)NCCO[C@H]1O[C@H](CO)[C@@H](O)[C@H](O)[C@@H]1O)CC(=O)NCCO[C@H]1O[C@H](CO)[C@@H](O)[C@H](O)[C@@H]1O [IOC-40] |
| 20.7 nM | CC(=O)[C@H](CCCCN)NC(=O)CCCCC(=O)NCC(=O)N[C@@H](CCC(=O)N[C@@H](CCC(=O)NCCCCCC(=O)N(CCOC1O[C@H](CO)[C@@H](O)[C@H](O)[C@@H]1O)CCO[C@H]1O[C@H](CO)[C@@H](O)[C@H](O)[C@@H]1O)C(=O)NCCCCCC(=O)N(CCOC1O[C@H](CO)[C@@H](O)[C@H](O)[C@@H]1O)CCOC1O[C@H](CO)[C@@H](O)[C@H](O)[C@@H]1O)C(=O)NCCCCCC(=O)NCCO[C@H]1O[C@H](CO[C@H]2O[C@H](CO)[C@@H](O)[C@H](O)[C@@H]2O)[C@@H](O)[C@H](O[C@H]2O[C@H](CO)[C@@H](O)[C@H](O)[C@@H]2O)[C@@H]1O (some centres unmarked) [IOC-27] |
| 8.91 nM | CC(=O)[C@H](CCCCN)NC(=O)CCCCCNC(=O)[C@H](CCCCNC(=O)[C@H](CCCCNC(=O)CCCCCNC(=O)CN(CC(=O)NCCO[C@@H]1O[C@@H](C)[C@@H](O)[C@@H](O)[C@@H]1O)CC(=O)NCCO[C@@H]1O[C@@H](C)[C@@H](O)[C@@H](O)[C@@H]1O)NC(=O)CN(CC(=O)NCCO[C@@H]1O[C@@H](C)[C@@H](O)[C@@H](O)[C@@H]1O)CC(=O)NCCO[C@@H]1O[C@@H](C)[C@@H](O)[C@@H](O)[C@@H]1O)NC(=O)CN(CC(=O)NCCO[C@@H]1O[C@@H](C)[C@@H](O)[C@@H](O)[C@@H]1O)CC(=O)NCCO[C@@H]1O[C@@H](C)[C@@H](O)[C@@H](O)[C@@H]1O [IOC-45] |
